Laboratory results as given in PubChem BioAssay AID2060505 (Molecular Pharmacology Branch, DTP, NCI, 2025).
Where “and” joins values, the source holds several entries; their conditions need not be identical. Equal values may be shown once.

System: 633275-114-R-J1-PDC complex spheroids, viability
Assay: Anticancer human tumor 633275-114-R-J1-PDC patient-derived endometrial adenocarcinoma cell line growth inhibition [GQUAD]
Conditions: for viability, T/C: stronger effect = lower value
Description: DNA G-quadruplex Stabilizer Agents in Combinations in Complex Spheroids
A high-throughput screen of multi-cell type tumor spheroids was designed to identify active combinations of DNA G-quadruplex stabilizer agents and targeted small molecules. Complex spheroids include a stromal component modeled by human endothelial cells (HUVEC) and fibroblasts modeled by human mesenchymal stem cells (MSCs). The concentration ranges selected for each drug and investigational agent were based upon clinically achievable concentrations if the clinical Cmax of the agent was known.
Compounds. The drugs and investigational agents: pidnarulex (CX-5461; NSC782164), APTO-253 (NSC789042), BRACO-19 (NSC847499), peposertib (NSC802822), ceralasertib (NSC780249), elimusertib (NSC800525), camonsertib (NSC841442), AZD-1390 (NSC803789), olaparib (NSC753686), talazoparib (NSC767125), ART-558 (NSC835418), sotorasib (NSC818433), MRTX-1133 (NSC836407), SN-38 (NSC673596), topotecan (NSC609699), etoposide (NSC141540), doxorubicin (NSC123127), gemcitabine (NSC613327), 5-fluorouracil (NSC19893), paclitaxel (NSC125973), vemurafenib (NSC761431), panobinostat (NSC761190), R-306465 (JNJ-16241199; NSC773264), adavosertib (NSC754352), TP-3654 (NSC805149), carboplatin (NSC241240), KSQ-4279 (NSC840948), and staurosporine (NSC755774) were obtained from the National Cancer Institute (NCI) Developmental Therapeutics Program Chemical Repository (34). The FDA-approved anticancer drug set is available from the NCI Developmental Therapeutics Program. […] The stock solutions were prepared in dimethyl sulfoxide (DMSO, Sigma-Aldrich, St. Louis, MO, cat. D2650) at 800-fold the tested concentration and stored at -70 degrees C prior to their use. All drugs and investigational agents were tested over a range starting from a high concentration at or near the clinical Cmax and decreasing in half-log increments. If the clinical Cmax for an agent had not been determined, the highest concentration tested was 10 microM.
2.3 Cell Culture. All cells were maintained in an incubator at 37 degrees C and 5% CO2 with 95% humidity. The PDC lines were cultured according to standard operating procedures established by the NCI PDMR. All PDCs were thawed and cultured in Matrigel-coated flasks prepared with a working solution of 1X Ham's F-12 nutrient mix, without supplementation (Invitrogen, cat. 11765054), 100 U/mL penicillin-streptomycin (Invitrogen, cat. 15140122), and 2.5% Matrigel (Corning Inc., cat. 354248) for the first three passages. The 857933-349-R-J2-PDC line was cultured in 6C/Colon 1B media, which includes advanced DMEM/F-12 (Thermo Fisher Scientific, cat. 12634028), 10 mM HEPES (Thermo Fisher Scientific, cat. 15630080), 1X GlutaMAX supplement (Thermo Fisher Scientific, cat. 35050061), 0.1 mg/mL primocin (InvivoGen, cat. ant-pm-2), 10% defined fetal bovine serum, heat inactivated (HyClone Laboratories Inc., cat. SH30070.03HI), 50% L-WRN conditioned media (ATCC, cat. CRL-3276), 1.25 mM N-Acetyl-L-cysteine (Sigma-Aldrich, cat. A9165), 10 mM nicotinamide (Sigma-Aldrich, cat. N0636), 1X B-27 supplement (Thermo Fisher Scientific, cat. 17504044), 1X N-2 supplement (Thermo Fisher Scientific, cat. 17502048), 10 microM Y-27632 dihydrochloride (Tocris Bioscience, cat. 1254), and 50 ng/mL human EGF recombinant protein (Thermo Fisher Scientific, cat. PHG0311). The 485176-168-R4-J1-PDC line was cultured in Panc media, which includes all 6C/Colon 1B media components plus 100 ng/mL human FGF-10 (Thermo Fisher Scientific, cat. 100-26), 500 nM SB-431542 (Selleckchem, cat. S1067), and gastrin (Tocris, cat. 3006).
[…]

[1] = compound alone, run of 03/18/2024
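Note: spheroids exposed to the agents for seven days.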
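Throughout, for viability, T/C: percent of DMSO vehicle control viability which is 100%.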

`COc1cc(C2c3cc4c(cc3C(OC3OC5COC(C)OC5C(O)C3O)C3COC(=O)C23)OCO4)cc(OC)c1O` (configuration not stated) was tested, and the viability, T/C (compound 0.0316 µM) was 90.9% and 82.6% and 84.5%, the viability, T/C (compound 0.1 µM) was 71.1% and 64.9% and 66.1% and the viability, T/C (compound 0.316 µM) was 50.1% and 51.4% and 46.9%. For the same compound, the viability, T/C (compound 1 µM) was 44.4% and 42.1% and 49.9%, the viability, T/C (compound 3.16 µM) was 38.2% (2×) and 36.1% and the viability, T/C (compound 10 µM) was 32.7% and 30.8% and 28.3%. For the same compound, the IC50 (curve of compound) was 0.442 µM and 0.384 µM and 0.466 µM.
`COc1ccc([C@@H](O)c2cc(-c3ncnc4cc(N5CCOCC5)ccc34)c(F)cc2Cl)nn1` was tested, and the viability, T/C (compound 0.0316 µM) was 94.5% and 95% and 93.8%, the viability, T/C (compound 0.1 µM) was 98.8% and 89.7% and 92.3% and the viability, T/C (compound 0.316 µM) was 85.5% and 89.3% and 86.5%. For the same compound, the viability, T/C (compound 1 µM) was 73.6% and 74.7% and 67.5%, the viability, T/C (compound 3.16 µM) was 54.6% and 53.4% and 53.7% and the viability, T/C (compound 10 µM) was 35.3% and 42.5% and 31.2%. The IC50 (curve of compound) was 4.05 µM and 4.54 µM and 3.48 µM.
With `COc1cccc2c1C(=O)c1c(O)c3c(c(O)c1C2=O)CC(O)(C(=O)CO)CC3OC1CC(N)C(O)C(C)O1` (configuration not stated) the viability, T/C (compound 0.0316 µM) was 62% and 55.6% and 60.7%, the viability, T/C (compound 0.1 µM) was 45.2% and 39% and 44.2% and the viability, T/C (compound 0.316 µM) was 35.7% and 31.5% and 33%. The viability, T/C (compound 1 µM) was 21.9% and 16.8% and 22.1%, the viability, T/C (compound 3.16 µM) was 1.91% and 1.16% and 1.41% and the viability, T/C (compound 10 µM) was 2% and 1.77% and 1.5%. The IC50 (curve of compound) was 0.0876 µM and 0.0481 µM and 0.0747 µM.
In the case of `COc1ncnc(C2CC2)c1-c1ncc2cnn(Cc3ccc(-c4nc(C(F)(F)F)cn4C(C)C)cc3)c2n1`, the viability, T/C (compound 0.0316 µM) is reported as 91.5% and 91.7% and 98.3%, the viability, T/C (compound 0.1 µM) is reported as 95.1% and 89.5% and 100% and the viability, T/C (compound 0.316 µM) is reported as 86.6% and 85.3% and 100%. For the same compound, the viability, T/C (compound 1 µM) was 90.3% and 101% and 82.7%, the viability, T/C (compound 3.16 µM) was 98% and 106% and 95.6% and the viability, T/C (compound 10 µM) was 85% and 87.1% and 84.9%. The IC50 (curve of compound) was > 10 µM.
For `Cc1[nH]c2ccc(F)cc2c1-c1nc2c3cccnc3c3ncccc3c2[nH]1`, the viability, T/C (compound 0.0316 µM) was 104% [middle of 12 runs], the viability, T/C (compound 0.1 µM) was 102% [middle of 12 runs] and the viability, T/C (compound 0.316 µM) was 99.1% [middle of 12 runs]. For the same compound, the viability, T/C (compound 1 µM) was 92.6% [middle of 12 runs], the viability, T/C (compound 3.16 µM) was 73% [middle of 12 runs] and the viability, T/C (compound 10 µM) was 72.2% [middle of 12 runs]. For the same compound, the IC50 [1] was > 10 µM and the IC50 (compound alone, run of 03/26/2024) was > 10 µM.
In the case of `Cc1[nH]c2ccccc2c1CCNCc1ccc(/C=C/C(=O)NO)cc1`, the viability, T/C (compound 0.000999 µM) is reported as 101% and 103% and 102%, the viability, T/C (compound 0.00316 µM) is reported as 85.1% and 98.6% and 81.7% and the viability, T/C (compound 0.00999 µM) is reported as 77.8% and 64.2% and 81.9%. For the same compound, the viability, T/C (compound 0.0316 µM) was 61.1% and 69.2% and 57.3%, the viability, T/C (compound 0.0999 µM) was 43% and 39.6% and 43.9% and the viability, T/C (compound 0.316 µM) was 18.1% and 22.3% and 22.9%. For the same compound, the IC50 (curve of compound) was 0.0613 µM and 0.0596 µM and 0.0611 µM.
`Cc1cccc(N(C)C(=O)C2C(O)CCN2c2nc(C)cc(C(F)(F)F)c2C#N)c1` (configuration not stated) was tested, and the viability, T/C (compound 0.0316 µM) was 104% and 106% and 102%, the viability, T/C (compound 0.1 µM) was 87.3% and 93.7% and 107% and the viability, T/C (compound 0.316 µM) was 96.6% and 105% and 93%. The viability, T/C (compound 1 µM) was 99.8% and 93.9% and 87.2%, the viability, T/C (compound 3.16 µM) was 104% and 103% and 98.8% and the viability, T/C (compound 10 µM) was 96.2% and 95.4% and 92.5%. The IC50 (curve of compound) was > 10 µM.
With `Cc1cnc(CNC(=O)c2c(=O)c3ccc(N4CCCN(C)CC4)nc3n3c2sc2ccccc23)cn1` the viability, T/C (compound 0.0316 µM) was 66.5% [middle of 12 runs], the viability, T/C (compound 0.1 µM) was 51.1% [middle of 12 runs] and the viability, T/C (compound 0.316 µM) was 46.2% [middle of 11 runs]. The viability, T/C (compound 1 µM) was 41.8% [middle of 12 runs], the viability, T/C (compound 3.16 µM) was 39% [middle of 12 runs] and the viability, T/C (compound 10 µM) was 33.2% [middle of 12 runs]. For the same compound, the IC50 [1] was 187 nM [middle of 12 runs].
`Cn1ncnc1[C@H]1c2n[nH]c(=O)c3cc(F)cc(c23)N[C@@H]1c1ccc(F)cc1` was tested, and the viability, T/C (compound 0.000999 µM) was 101% and 100% and 95.7%, the viability, T/C (compound 0.00316 µM) was 97.5% and 87.7% and 88.7% and the viability, T/C (compound 0.00999 µM) was 87.6% and 88.2% and 102%. The viability, T/C (compound 0.0316 µM) was 79% (2×) and 83.2%, the viability, T/C (compound 0.0999 µM) was 69.5% and 71% and 65.5% and the viability, T/C (compound 0.316 µM) was 56.5% and 57.2% and 61.5%. The IC50 (curve of compound) was > 0.316 µM.
For `Nc1ccn(C2OC(CO)C(O)C2(F)F)c(=O)n1` (configuration not stated), the viability, T/C (compound 0.0316 µM) was 30.6% and 26.5% and 26.6%, the viability, T/C (compound 0.1 µM) was 24.7% and 22.3% and 23.2% and the viability, T/C (compound 0.316 µM) was 28.7% and 23.9% and 24.1%. The viability, T/C (compound 1 µM) was 25.4% and 23.2% and 21.9%, the viability, T/C (compound 3.16 µM) was 27.3% and 23.6% and 20.7% and the viability, T/C (compound 10 µM) was 21.7% and 17.1% and 18.9%. For the same compound, the IC50 (curve of compound) was < 0.0316 µM.
In the case of `O=C(NO)c1cnc(N2CCN(S(=O)(=O)c3ccc4ccccc4c3)CC2)nc1`, the viability, T/C (compound 0.0316 µM) is reported as 75.3% and 69.1% and 84.1%, the viability, T/C (compound 0.1 µM) is reported as 61.1% and 65.8% and 72.9% and the viability, T/C (compound 0.316 µM) is reported as 38.8% and 38.6% and 43.8%. For the same compound, the viability, T/C (compound 1 µM) was 21.8% (2×) and 19.6%, the viability, T/C (compound 3.16 µM) was 12.8% and 12.7% and 13.8% and the viability, T/C (compound 10 µM) was 5.19% and 5.98% and 4.22%. For the same compound, the IC50 (curve of compound) was 0.177 µM and 0.198 µM and 0.252 µM.
With `O=C(c1cc(Cc2n[nH]c(=O)c3ccccc23)ccc1F)N1CCN(C(=O)C2CC2)CC1` the viability, T/C (compound 0.0316 µM) was 101% and 96.1% and 100%, the viability, T/C (compound 0.1 µM) was 94.1% and 84.6% and 94% and the viability, T/C (compound 0.316 µM) was 86.2% and 95.4% and 96.1%. The viability, T/C (compound 1 µM) was 85.2% and 91.4% and 78.4%, the viability, T/C (compound 3.16 µM) was 74.8% and 71.8% and 75.2% and the viability, T/C (compound 10 µM) was 58.2% and 52.5% and 61.2%. The IC50 (curve of compound) was > 10 µM.
For `O=c1[nH]cc(F)c(=O)[nH]1`, the viability, T/C (compound 0.0316 µM) was 103% (2×) and 98.4%, the viability, T/C (compound 0.1 µM) was 90.1% and 99.8% and 94.7% and the viability, T/C (compound 0.316 µM) was 91.3% and 105% and 101%. For the same compound, the viability, T/C (compound 1 µM) was 95.9% and 91.8% and 94.2%, the viability, T/C (compound 3.16 µM) was 89.3% and 98.9% and 91.8% and the viability, T/C (compound 10 µM) was 77.6% and 72% and 67.4%. The IC50 (curve of compound) was > 10 µM.
